Data taken from ChEMBL document CHEMBL4145553, “Design, synthesis, and biological evaluation of novel amide and hydrazide based thioether analogs targeting Histone deacteylase (HDAC) enzymes” (Eur J Med Chem, 2018).
Calls of active or inactive are those of the source. The calls are words filed in the database; no cut-off is given here.

Columns and labels:
DU-145 = experiment: Growth inhibition of human DU145 cells assessed as cell growth at 10^-7 M incubated for 48 hrs by sulforhodamine B assay relative to control; assay type: functional; settings: DU-145, 48 h, read-out: Activity
MDA-MB-435 [1] = experiment: Induction of apoptosis in human MDA-MB-435 cells assessed as late apoptotic cells by propidium iodide/Annexin V staining based flow cytometry (reference value: 0.22%); assay type: functional
OVCAR-3 = experiment: Growth inhibition of human OVCAR3 cells assessed as cell growth at 10^-4 M incubated for 48 hrs by sulforhodamine B assay relative to control; assay type: functional; settings: OVCAR-3, 48 h, read-out: Activity
EKVX [2] = experiment: Growth inhibition of human EKVX cells assessed as cell growth at 10^-4 M incubated for 48 hrs by sulforhodamine B assay relative to control; assay type: functional; settings: read-out: Activity
Malme-3M [3] = experiment: Growth inhibition of human MALME-3M cells assessed as cell growth at 10^-7 M incubated for 48 hrs by sulforhodamine B assay relative to control; assay type: functional; settings: read-out: Activity
MDA-MB-435 [4] = experiment: Induction of apoptosis in human MDA-MB-435 cells assessed as early apoptotic cells by propidium iodide/Annexin V staining based flow cytometry (reference value: 0.25%); assay type: functional
SR [5] = experiment: Growth inhibition of human SR cells assessed as cell growth at 10^-7 M incubated for 48 hrs by sulforhodamine B assay relative to control; assay type: functional; settings: read-out: Activity
SK-MEL-2 = experiment: Growth inhibition of human SK-MEL-2 cells assessed as cell growth at 10^-8 M incubated for 48 hrs by sulforhodamine B assay relative to control; assay type: functional; settings: SK-MEL-2, 48 h, read-out: Activity
KM12 = experiment: Growth inhibition of human KM12 cells assessed as cell growth at 10^-6 M incubated for 48 hrs by sulforhodamine B assay relative to control; assay type: functional; settings: KM12, 48 h, read-out: Activity
SNB-75 = experiment: Growth inhibition of human SNB75 cells assessed as cell growth at 10^-4 M incubated for 48 hrs by sulforhodamine B assay relative to control; assay type: functional; settings: SNB-75, 48 h, read-out: Activity
HOP-62 = experiment: Growth inhibition of human HOP62 cells assessed as cell growth at 10^-6 M incubated for 48 hrs by sulforhodamine B assay relative to control; assay type: functional; settings: HOP-62, 48 h, read-out: Activity
SF-295 = experiment: Growth inhibition of human SF295 cells assessed as cell growth at 10^-4 M incubated for 48 hrs by sulforhodamine B assay relative to control; assay type: functional; settings: SF-295, 48 h, read-out: Activity
SW-620 = experiment: Growth inhibition of human SW620 cells assessed as cell growth at 10^-5 M incubated for 48 hrs by sulforhodamine B assay relative to control; assay type: functional; settings: SW-620, 48 h, read-out: Activity
OVCAR-8 = experiment: Growth inhibition of human OVCAR8 cells assessed as cell growth at 10^-5 M incubated for 48 hrs by sulforhodamine B assay relative to control; assay type: functional; settings: OVCAR-8, 48 h, read-out: Activity
SK-OV-3 = experiment: Growth inhibition of human SKOV3 cells assessed as cell growth at 10^-4 M incubated for 48 hrs by sulforhodamine B assay relative to control; assay type: functional; settings: SK-OV-3, 48 h, read-out: Activity
HL-60 = experiment: Induction of apoptosis in human HL60 cells assessed as necrotic cells by propidium iodide/Annexin V staining based flow cytometry (reference value: 0.34%); assay type: functional
SF-268 [6] = experiment: Growth inhibition of human SF268 cells assessed as cell growth at 10^-6 M incubated for 48 hrs by sulforhodamine B assay relative to control; assay type: functional; settings: SF-268, 48 h, read-out: Activity
HCT-116 = experiment: Growth inhibition of human HCT116 cells assessed as cell growth at 10^-8 M incubated for 48 hrs by sulforhodamine B assay relative to control; assay type: functional; settings: HCT-116, 48 h, read-out: Activity
NCI/ADR-RES = experiment: Growth inhibition of human NCI/ADR-RES cells assessed as cell growth at 10^-4 M incubated for 48 hrs by sulforhodamine B assay relative to control; assay type: functional; settings: read-out: Activity
SK-MEL-28 = experiment: Growth inhibition of human SK-MEL-28 cells incubated for 48 hrs by sulforhodamine B assay; assay type: functional; settings: SK-MEL-28, 48 h
MDA-MB-435 [7] = experiment: Induction of apoptosis in human MDA-MB-435 cells assessed as increase in gammaH2ax expression by qRT-PCR method; assay type: functional, cell-based
Malme-3M [8] = experiment: Growth inhibition of human MALME-3M cells incubated for 48 hrs by sulforhodamine B assay; assay type: functional
MDA-MB-435 [9] = experiment: Growth inhibition of human MDA-MB-435 cells assessed as cell growth at 10^-4 M incubated for 48 hrs by sulforhodamine B assay relative to control; assay type: functional; settings: MDA-MB-435, 48 h, read-out: Activity
SR [10] = experiment: Growth inhibition of human SR cells assessed as cell growth at 10^-6 M incubated for 48 hrs by sulforhodamine B assay relative to control; assay type: functional; settings: read-out: Activity
EKVX [11] = experiment: Growth inhibition of human EKVX cells assessed as cell growth at 10^-8 M incubated for 48 hrs by sulforhodamine B assay relative to control; assay type: functional; settings: read-out: Activity
UACC-62 = experiment: Growth inhibition of human UACC62 cells assessed as cell growth at 10^-5 M incubated for 48 hrs by sulforhodamine B assay relative to control; assay type: functional; settings: UACC-62, 48 h, read-out: Activity
SNB-19 = experiment: Growth inhibition of human SNB19 cells assessed as cell growth at 10^-5 M incubated for 48 hrs by sulforhodamine B assay relative to control; assay type: functional; settings: SNB-19, 48 h, read-out: Activity
MDA-MB-435 [12] = experiment: Growth inhibition of human MDA-MB-435 cells assessed as cell growth at 10^-6 M incubated for 48 hrs by sulforhodamine B assay relative to control; assay type: functional; settings: MDA-MB-435, 48 h, read-out: Activity
SF-268 [13] = experiment: Growth inhibition of human SF268 cells assessed as cell growth at 10^-4 M incubated for 48 hrs by sulforhodamine B assay relative to control; assay type: functional; settings: SF-268, 48 h, read-out: Activity
LOX IMVI = experiment: Growth inhibition of human LOXIMVI cells assessed as cell growth at 10^-7 M incubated for 48 hrs by sulforhodamine B assay relative to control; assay type: functional; settings: read-out: Activity
RPMI-8226 = experiment: Growth inhibition of human RPMI8226 cells assessed as cell growth at 10^-4 M incubated for 48 hrs by sulforhodamine B assay relative to control; assay type: functional; settings: RPMI-8226, 48 h, read-out: Activity
SN12C = experiment: Growth inhibition of human SN12C cells assessed as cell growth at 10^-4 M incubated for 48 hrs by sulforhodamine B assay relative to control; assay type: functional; settings: read-out: Activity
MDA-MB-231 = experiment: Growth inhibition of human MDA-MB-231 cells assessed as cell growth at 10^-4 M incubated for 48 hrs by sulforhodamine B assay relative to control; assay type: functional; settings: MDA-MB-231, 48 h, read-out: Activity
[14] = read-out: LC50 (the source's name)
[15] = read-out: pLC50 (the source's name) (converted)

`CCS/C(Nc1ccccc1)=C(\C#N)C(=O)Nc1ccc(OC)cc1` gave a growth at 0.1 µM (DU-145) of 96%, an Activity (MDA-MB-435 [1]) of 6.38% and a growth at 100 µM (OVCAR-3) of -15%. The growth at 100 µM (EKVX [2]) was 16%, the growth at 0.1 µM (Malme-3M [3]) was 92% and the Activity (MDA-MB-435 [4]) was 4.61%. The growth at 0.1 µM (SR [5]) was 85%, the growth at 0.01 µM (SK-MEL-2) was 106% and the growth at 1 µM (KM12) was 68%. It also gave a growth at 100 µM (SNB-75) of -22%, a growth at 1 µM (HOP-62) of 78% and a growth at 100 µM (SF-295) of 6%. For the same molecule, the growth at 10 µM (SW-620) was 21%, the growth at 10 µM (OVCAR-8) was 23% and the growth at 100 µM (SK-OV-3) was -4%. The Activity (HL-60) was 1.98%, the growth at 1 µM (SF-268 [6]) was 90% and the growth at 0.01 µM (HCT-116) was 100%. The growth at 100 µM (NCI/ADR-RES) was 10%, the GI50 (SK-MEL-28; read-out: GI50) was 15.3 µM and the CC50 (SK-MEL-28; [14]) was > 100 µM. The TGI (SK-MEL-28; read-out: TGI) was > 100 µM, the GI50 (SK-MEL-28; read-out: pGI50 (converted)) was 15.5 µM and the CC50 (SK-MEL-28; [15]) was > 100 µM. The TGI (SK-MEL-28; read-out: pTGI) was > 100 µM, the Activity (MDA-MB-435 [7]) was “Active” and the GI50 (Malme-3M [8]; read-out: GI50) was 47.3 µM. The CC50 (Malme-3M [8]; [14]) was > 100 µM, the TGI (Malme-3M [8]; read-out: TGI) was > 100 µM and the GI50 (Malme-3M [8]; read-out: pGI50 (converted)) was 46.8 µM. The CC50 (Malme-3M [8]; [15]) was > 100 µM, the TGI (Malme-3M [8]; read-out: pTGI) was > 100 µM and the growth at 100 µM (MDA-MB-435 [9]) was -35%. It also gave a growth at 1 µM (SR [10]) of 57%, a growth at 0.01 µM (EKVX [11]) of 89% and a growth at 10 µM (UACC-62) of 21%. For the same molecule, the growth at 10 µM (SNB-19) was 22%, the growth at 1 µM (MDA-MB-435 [12]) was 19% and the growth at 100 µM (SF-268 [13]) was 11%. It also gave a growth at 0.1 µM (LOX IMVI) of 96%, a growth at 100 µM (RPMI-8226) of 5% and a growth at 100 µM (SN12C) of 16%. It also gave a growth at 100 µM (MDA-MB-231) of -18%.
`CCS/C(Nc1ccccc1)=C(\C#N)C(=O)N/N=C\c1ccc(Cl)cc1Cl` gave a growth at 0.1 µM (DU-145) of 98%, an Activity (MDA-MB-435 [1]) of 3.47% and a growth at 100 µM (OVCAR-3) of -23%. The growth at 100 µM (EKVX [2]) was 29%, the growth at 0.1 µM (Malme-3M [3]) was 89% and the Activity (MDA-MB-435 [4]) was 2.52%. The growth at 0.1 µM (SR [5]) was 80%, the growth at 0.01 µM (SK-MEL-2) was 106% and the growth at 1 µM (KM12) was 90%. It also gave a growth at 100 µM (SNB-75) of -17%, a growth at 1 µM (HOP-62) of 76% and a growth at 100 µM (SF-295) of 3%. It also gave a growth at 10 µM (SW-620) of 31%, a growth at 10 µM (OVCAR-8) of 27% and a growth at 100 µM (SK-OV-3) of 12%. The Activity (HL-60) was 2.03%, the growth at 1 µM (SF-268 [6]) was 87% and the growth at 0.01 µM (HCT-116) was 96%. For the same molecule, the growth at 100 µM (NCI/ADR-RES) was 11%, the GI50 (SK-MEL-28; read-out: GI50) was 23.6 µM and the CC50 (SK-MEL-28; [14]) was > 100 µM. For the same molecule, the TGI (SK-MEL-28; read-out: TGI) was > 100 µM, the GI50 (SK-MEL-28; read-out: pGI50 (converted)) was 23.4 µM and the CC50 (SK-MEL-28; [15]) was > 100 µM. For the same molecule, the TGI (SK-MEL-28; read-out: pTGI) was > 100 µM, the Activity (MDA-MB-435 [7]) was “Active” and the GI50 (Malme-3M [8]; read-out: GI50) was 9.3 µM. For the same molecule, the CC50 (Malme-3M [8]; [14]) was > 100 µM, the TGI (Malme-3M [8]; read-out: TGI) was > 100 µM and the GI50 (Malme-3M [8]; read-out: pGI50 (converted)) was 9.33 µM. For the same molecule, the CC50 (Malme-3M [8]; [15]) was > 100 µM, the TGI (Malme-3M [8]; read-out: pTGI) was > 100 µM and the growth at 100 µM (MDA-MB-435 [9]) was -52%. For the same molecule, the growth at 1 µM (SR [10]) was 76%, the growth at 0.01 µM (EKVX [11]) was 98% and the growth at 10 µM (UACC-62) was 26%. For the same molecule, the growth at 10 µM (SNB-19) was 28%, the growth at 1 µM (MDA-MB-435 [12]) was 28% and the growth at 100 µM (SF-268 [13]) was 27%. It also gave a growth at 0.1 µM (LOX IMVI) of 96%, a growth at 100 µM (RPMI-8226) of 6% and a growth at 100 µM (SN12C) of 28%. It also gave a growth at 100 µM (MDA-MB-231) of 9%.
